Results reported in patent US9713605B2, “Ameliorative or preventive effect of Antrodia cinnamomea in arthritis, cartilage destruction, or chondrocyte death” (Simpson Biotech Co., Ltd., priority 2011, dated 2017).

Experiments:
[1] = system: collagen antibody-induced arthritis (CAIA) in BALB/c mice; assay: Footpad thickness change in acute stage of CAIA; type: in vivo; conditions: day 10; oral once daily day 0 to day 9; mean±SEM; arthritis group 1.0446±0.0369
Description: (§1) Male BALB/cByJNarl (BALB/c) mice were purchased at age six weeks from National Laboratory Animal Center (Taiwan) and subsequently bred and maintained under specific pathogen-free conditions in the Laboratory Animal Center of National Defense Medical Center (Taipei, Taiwan).
(§2) An arthritogenic monoclonal antibody (mAb) cocktail and lipopolysaccharide (LPS) were purchased from Immuno-Biological Laboratories (Hamburg, Germany). Arthritis was induced by the method of Terato et al. (Terato et al., Induction of arthritis with monoclonal antibodies to collagen. J Immunol. 1992 Apr. 1; 148(7):2103-8), using an arthritogenic mAb cocktail that contained four mAbs (F10, A2, D8, and D1) in equal amounts and using LPS as adjuvant. Three clones (F10, A2, and D8) were of type IgG2a, and one clone (D1) was type IgG2b. To induce arthritis, each mouse was injected intravenously with 2 mg of anti-CII mAbs followed by an intraperitoneal injection of 50 μg (BALB/c background) LPS (Escherichia coli 0111:B4) three days later. Isotype IgG (anti-mouse IgG, 2 mg, Jackson Lab.) supplied with LPS and only LPS induction groups were applied in same condition.
(§3) Arthritis development was monitored in the four limbs using a macroscopic scoring system. Briefly, one point was given for each swollen or red toe; one point for each swollen joint (metatarsal-phalangeal joints, metacarpal-phalangeal joints, proximal interphalangeal joints, and distal interphalangeal joints); and five points for a swollen ankle (maximum score=15 per limb and 60 per mouse) (Nandakumar et al., Collagen type II (CII)-specific antibodies induce arthritis in the absence of T or B cells but the arthritis progression is enhanced by CII-reactive T cells. Arthritis Res. Ther. 6 (2004), R544-R550). The mice were examined on days 0, 3, 7, 10 and 14 after the mAb injection. The thickness of each paw was measured in a noncontact manner using a Simplified Geometry Measurement System (Advanced Design Research Technology Co., Ltd). Images of the paws of each mouse were recorded three times (Chia et al., A noncontact footpad thickness assay to evaluate rheumatoid disease. Rheumatol Int. 2010 February; 30(4):547-50). One trained researcher who was blinded to group treatments evaluated the image data independently.
(§4) Data were analyzed by the Mann-Whitney U test and were expressed as mean±SEM. A P value <0.05 was considered significant.
(§5) In each group, the subjects were given the sample once daily ([…]) since day 0 to day 9 via oral intake and the subjects was administrated before the antibody and LPS injection.

[2] = system: collagen antibody-induced arthritis (CAIA) in BALB/c mice; assay: Disease activity score (macroscopic scoring of four limbs) in acute stage of CAIA; type: in vivo; conditions: oral once daily; for disease activity score (maximum 60 per mouse): day 10, mean±SEM, arthritis group 53.71±2.763
Description: as §1, §2, §3, §4, §5

[3] = system: collagen antibody-induced arthritis (CAIA) in BALB/c mice; assay: Histopathological arthritis score of ankle joints in CAIA; type: in vivo; conditions: ankle joint harvested on day 10; mean±SEM; arthritis group 4.178±0.2023
Description: as §2
The ankle joints were fixed in 10% formalin, decalcified, trimmed, and embedded. Sections were prepared from the tissue blocks and stained with hematoxylin and eosin. Histopathological scoring was performed as described below. Ankle joints of arthritic mice were given arthritis scores of 0, 1, 2, 3, 4, and 5 to describe the arthritis according to the following criteria: 0, normal; 1, minimal infiltration of polymorphonuclear leukocytes in the periarticular area; 2, mild infiltration; 3, moderate infiltration; 4, marked infiltration; and 5, severe infiltration (Doherty, 2001. Risk factors for progression of knee osteoarthritis. Lancet 358:775-6). Three independent observers scored each slide, and the average score was used.
as §4, §5

[4] = system: IL-1β; assay: Relative expression level of IL-1β mRNA in footpad (quantitative PCR) in CAIA; type: in vivo, mice; conditions: day 10, mean±SEM, arthritis group 41.13±6.465
Description: as §2
Total RNA was isolated using the Trizol method. Footpad tissues were homogenized in Trizol lysis buffer followed by chloroform extraction (Life Technologies). The RNA was eluted with 20 μl of RNase-free water. All RNA was quantified by spectrophotometer, and the optical density (OD) 260/280 nm ratio was determined. For cDNA synthesis, 5 μg total RNA was reverse transcribed at 50° C. for 60 min using 200 units of Superscript III reverse transcriptase (Invitrogen). The primer sequence was as follows: IL1-β, forward primer (5′-[…]), reverse primer (5′-CTCGCAGCAGCACATCAAC); and GAPDH, forward primer (5′-[…]), reverse primer (5′-[…]). The SYBR Green master mix kit (Bio-Rad) was used for all reactions with real-time PCR. Briefly, PCR was performed as follows: 94° C. for 2 min followed by 40 cycles of denaturation; annealing; and extension at 94° C. for 15 s, 64° C. for 30 s, and 72° C. for 45 s; and final extension at 72° C. for 10 min. The PCR reaction was performed in triplicate for each sample for all the products and for the GAPDH control. Ratios for each product relative to GAPDH mRNA were calculated for each sample. The data presented are expressed as the fold-increase or fold-decrease in mRNA level. For all real-time PCR assays, the products were run out on a gel to confirm the presence of a single band.
as §4, §5

[5] = system: cartilage destruction in ankle joints of arthritic mice; assay: Histopathological cartilage destruction score of ankle joints in CAIA; type: in vivo; conditions: ankle joint harvested on day 10; mean±SD; arthritis group 2.063±0.776
Description: as §2
The ankle joints were fixed in 10% formalin, decalcified, trimmed, and embedded. Sections were prepared from the tissue blocks and stained with hematoxylin and eosin. Histopathological scoring was performed as described below. […] Two independent observers scored each slide, and the average score was used.
(§6) Data were analyzed by the t test and are expressed as mean±SD. […]

[6] = system: chondrocyte death in ankle joints of arthritic mice; assay: Histopathological chondrocyte death score of ankle joints in CAIA; type: in vivo; conditions: ankle joint harvested on day 10; mean±SD; arthritis group 1.929±0.450
Description: as §2, with “Isotype IgG (anti-mouse IgG, 2 mg, Jackson Lab.) supplied with LPS and only LPS induction groups were applied in same condition.” left out
Ankle joints of arthritic mice were given chondrocyte death scores of 0, 1, 2, and 3 to describe the chondrocyte death according to the following criteria: 0, normal (FIG. 7A); 1, mild chondrocyte death (around less than ⅓ chondrocyte death in cartilage of all sections, FIGS. 7B, 7C); 2, moderate chondrocyte death (between ⅓ to ⅔ area chondrocyte death in the cartilage, FIG. 7D); 3, severe chondrocyte death (more than ⅔ chondrocyte death in the cartilage, FIG. 7E). Two independent observers scored each slide, and the average score was used.
as §6

SMILES | footpad thickness (average increase compared to baseline) [1] | disease activity score, difference versus arthritis group ([2]; day 7) | disease activity score (maximum 60 per mouse) [2] | arthritis score (histopathological, 0-5) [3] | relative expression levels of IL-1β (relative to GAPDH mRNA) [4] | cartilage destruction score (0-3) [5] | chondrocyte death score (0-3) [6]
CC(C)=CCOc1ccc([C@H]2C(=O)N(O)C(=O)[C@@H]2CC(C)C)cc1 (relative stereo) [D group, 3R*,4S*-1-hydroxy-3-isobutyl-4-[4-(3-methyl-2-butenyloxy)phenyl]pyrrolidine-2,5-dione] | 0.729±0.114 mm | significant difference | 39.687±5.238 | 3.458±0.559 | 10.141±2.765 | 1.167±0.144 | 1.042±0.439
CC(C)=CCOc1ccc(C2=C(CC(C)C)C(=O)OC2=O)cc1 [A group, 3-isobutyl-4-[4-(3-methyl-2-butenyloxy)phenyl]furan-2,5-dione] | 0.840±0.139 mm | – | 46.0±2.537 | 2.093±0.541 | 39.61±3.849 | – | –
CC(C)=CCOc1ccc(C2=C(CC(C)C)C(=O)NC2=O)cc1 [B group, 3-isobutyl-4-[4-(3-methyl-2-butenyloxy)phenyl]-1H-pyrrol-2,5-dione] | 0.837±0.177 mm | – | 45.58±4.818 | – | 16.873±4.82 | – | –
CC(C)=CCOc1ccc(C2=C(CC(C)C)C(=O)N(O)C2=O)cc1 [C group, 3-isobutyl-4-[4-(3-methyl-2-butenyloxy)phenyl]-1H-pyrrol-1-ol-2,5-dione] | 0.8605±0.098 mm | – | 47.718±3.581 | 3.25±0.421 | 20.714±4.751 | 1.000±0.467 | 0.58±0.555
